Data taken from patent US12398154B2, “Azaquinazoline pan-KRas inhibitors” (Mirati Therapeutics, Inc., priority 2020, dated 2025).

What was measured:
Assay in all cases: biochemical
KRas G12D = KRas G12D (Homo sapiens, UniProt P01116, G12D);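 further: TR-FRET displacement binding assay on KRas, read after a one-hour incubation at room temperature, IC50 fitted from percent-of-control values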
Method: (§1) The ability of a compound to bind to KRas was measured using a TR-FRET displacement assay. […] After a 60-minute incubation at room temperature, the reaction was measured using a BMG LABTECH CLARIO star Plus via TR-FRET. […] The POC values were fit to a 4-parameter IC50 equation and the IC50 value reported.

KRas G12V = KRas G12V (Homo sapiens, UniProt P01116, G12V);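 further: KRas binding measured by TR-FRET displacement at room temperature, IC50 fitted from percent of control values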
KRas G12V, sequence (P01116 1-169 isoform P01116-2 G12V): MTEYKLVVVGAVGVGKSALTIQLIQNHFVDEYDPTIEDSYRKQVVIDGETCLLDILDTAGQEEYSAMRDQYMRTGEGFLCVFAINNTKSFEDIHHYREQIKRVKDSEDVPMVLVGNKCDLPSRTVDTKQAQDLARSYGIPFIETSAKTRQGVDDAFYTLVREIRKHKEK
Method: as §1

KRas G12R = KRas G12R (Homo sapiens, UniProt P01116, G12R);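 further: TR-FRET displacement assay of compound binding to KRas, read after one hour at room temperature, potency from a four-parameter fit of percent-of-control values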
KRas G12R, sequence (P01116 1-169 isoform P01116-2 G12R): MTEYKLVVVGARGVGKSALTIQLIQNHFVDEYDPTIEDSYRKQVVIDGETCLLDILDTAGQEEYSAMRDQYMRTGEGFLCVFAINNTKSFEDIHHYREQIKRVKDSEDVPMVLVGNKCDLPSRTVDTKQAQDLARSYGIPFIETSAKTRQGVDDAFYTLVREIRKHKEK
Method: as §1

KRas G12A = KRas G12A (Homo sapiens, UniProt P01116, G12A);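 further: binding to KRas measured by TR-FRET displacement after one hour at room temperature, IC50 from a four-parameter fit of percent-of-control values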
KRas G12A, sequence (P01116 1-169 isoform P01116-2 G12A): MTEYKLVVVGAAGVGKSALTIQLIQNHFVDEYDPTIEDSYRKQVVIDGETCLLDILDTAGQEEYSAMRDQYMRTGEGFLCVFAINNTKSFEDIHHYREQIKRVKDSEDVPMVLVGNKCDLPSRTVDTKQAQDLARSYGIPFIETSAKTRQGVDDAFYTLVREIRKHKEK
Method: as §1

KRas G12S = KRas G12S (Homo sapiens, UniProt P01116, G12S);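 further: TR-FRET displacement binding to KRas, read after one hour incubation at room temperature, IC50 from four-parameter fit of percent of control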
KRas G12S, sequence (P01116 1-169 isoform P01116-2 G12S): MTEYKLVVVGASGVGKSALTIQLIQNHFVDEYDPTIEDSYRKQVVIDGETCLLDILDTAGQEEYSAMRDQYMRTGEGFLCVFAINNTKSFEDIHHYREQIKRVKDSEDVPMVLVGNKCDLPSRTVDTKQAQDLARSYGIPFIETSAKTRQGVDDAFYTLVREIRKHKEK
Method: as §1

KRas G12C = KRas G12C (Homo sapiens, UniProt P01116, G12C);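 further: binding to KRas assessed by TR-FRET displacement after one hour incubation at room temperature, potency fitted from percent-of-control values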
KRas G12C, sequence (P01116 1-169 isoform P01116-2 G12C): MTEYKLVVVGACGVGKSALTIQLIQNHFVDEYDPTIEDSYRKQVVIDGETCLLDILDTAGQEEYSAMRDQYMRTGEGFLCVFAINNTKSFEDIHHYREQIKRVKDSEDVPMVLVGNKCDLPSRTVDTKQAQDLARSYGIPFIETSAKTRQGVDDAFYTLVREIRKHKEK
Method: as §1

KRas WT = KRas WT (Homo sapiens, UniProt P01116);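 further: binding to KRas read as TR-FRET displacement after a one-hour room-temperature incubation, IC50 derived from percent-of-control values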
KRas WT, sequence (P01116 1-169 isoform P01116-2): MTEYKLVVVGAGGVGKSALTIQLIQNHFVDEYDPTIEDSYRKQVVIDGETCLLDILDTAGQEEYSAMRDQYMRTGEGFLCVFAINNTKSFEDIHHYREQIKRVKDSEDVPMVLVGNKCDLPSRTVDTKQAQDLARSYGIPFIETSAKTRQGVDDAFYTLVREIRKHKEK
Method: as §1

KRas G12D, sequence (P01116 1-169 isoform P01116-2 G12D): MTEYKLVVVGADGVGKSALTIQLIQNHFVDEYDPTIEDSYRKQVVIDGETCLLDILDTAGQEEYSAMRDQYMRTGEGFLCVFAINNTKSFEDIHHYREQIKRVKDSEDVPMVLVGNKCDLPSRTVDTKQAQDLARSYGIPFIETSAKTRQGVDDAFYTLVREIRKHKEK

| SMILES | IC50 (KRas G12D) [µM] | IC50 (KRas G12V) [µM] | IC50 (KRas G12R) [µM] | IC50 (KRas G12A) [µM] | IC50 (KRas G12S) [µM] | IC50 (KRas G12C) [µM] | IC50 (KRas WT) [µM] |
| --- | --- | --- | --- | --- | --- | --- | --- |
| Cc1ccc2[nH]ncc2c1-c1ncc2c(N3CCCC(C)(O)C3)nc(OCC34CCCN3CCC4)nc2c1F (stereo not drawn) [Example 430, 1-(8-fluoro-2-((hexahydro-1H-pyrrolizin-7a-yl)methoxy)-7-(5-methyl-1H-indazol-4-yl)pyrido[4,3-d]pyrimidin-4-yl)-3-methylpiperidin-3-ol] | 6.45 | 4.76 | 8.77 | 6.82 | 7.72 | 7.83 | 8.05 |
| Cc1cc(-c2ncc3c(N4CCCC(C)(O)C4)nc(OCC45CCCN4CCC5)nc3c2F)c2cn[nH]c2c1 (stereo not drawn) [Example 431, 1-(8-fluoro-7-(6-methyl-1H-indazol-4-yl)-2-((tetrahydro-1H-pyrrolizin-7a(5H)-yl)methoxy)pyrido[4,3-d]pyrimidin-4-yl)-3-methylpiperidin-3-ol] | 9.62 | 15.9 | 34.4 | 19.6 | 19.7 | 17.9 | 19.7 |
| Cc1ccc(O)cc1-c1ncc2c(N3CCCC(C)(O)C3)nc(OCC34CCCN3CCC4)nc2c1F (stereo not drawn) [Example 432, 1-(8-fluoro-2-((hexahydro-1H-pyrrolizin-7a-yl)methoxy)-7-(5-hydroxy-2-methylphenyl)pyrido[4,3-d]pyrimidin-4-yl)-3-methylpiperidin-3-ol] | 1.14 | 1.93 | 3.04 | 2.27 | 2.41 | 2.41 | 2.48 |
| N#CCc1cccc2cccc(-c3ncc4c(N5CCCC6(CC(=O)N6)C5)nc(OCC56CCCN5CCC6)nc4c3F)c12 (stereo not drawn) [Example 434, 2-(8-(8-fluoro-2-((hexahydro-1H-pyrrolizin-7a-yl)methoxy)-4-(2-oxo-1,6-diazaspiro[3.5]nonan-6-yl)pyrido[4,3-d]pyrimidin-7-yl)naphthalen-1-yl)acetonitrile] | 2.2 | 3.21 | 4.51 | 5.62 | 3.52 | 3.48 | 5.13 |
| Cc1cc(N)nc(-c2ncc3c(N4CCC[C@@](C)(O)C4)nc(OC[C@@H]4CCCN4C)nc3c2F)c1C(F)(F)F [Example 435, (R)-1-(7-(6-amino-4-methyl-3-(trifluoromethyl)pyridin-2-yl)-8-fluoro-2-(((S)-1-methylpyrrolidin-2-yl)methoxy)pyrido[4,3-d]pyrimidin-4-yl)-3-methylpiperidin-3-ol] | 3.89 | 5.44 | 6.86 | 4.91 | 5.64 | 4.84 | 4.45 |
| C#Cc1cccc2cccc(-c3ncc4c(N5CCCC(CS(N)(=O)=O)C5)nc(OCC56CCCN5CCC6)nc4c3F)c12 (stereo not drawn) [Example 437, 1-(1-(7-(8-ethynylnaphthalene-1-yl)-8-fluoro-2-((hexahydro-1H-pyrrolizin-7a-yl)methoxy)pyrido[4,3-d]pyrimidin-4-yl)piperidin-3-yl)methanesulfonamide] | 1.43 | 2.68 | 2.76 | 1.36 | 0.904 | 1.4 | 0.715 |
| NS(=O)(=O)CC1CCCN(c2nc(OCC34CCCN3CCC4)nc3c(F)c(-c4cccc5cccc(CO)c45)ncc23)C1 (stereo not drawn) [Example 439, 1-(1-(8-fluoro-2-((hexahydro-1H-pyrrolizin-7a-yl)methoxy)-7-(8-(hydroxymethyl)naphthalen-1-yl)pyrido[4,3-d]pyrimidin-4-yl)piperidin-3-yl)methanesulfonamide] | 7.97 | 5.79 | 2.83 | 2.15 | 2.26 | 2.53 | 2.03 |
| O=S1(=O)CC(CNc2nc(OCC34CCCN3CCC4)nc3c(F)c(-c4cccc5cccc(CO)c45)ncc23)C1 [Example 443, 3-(((8-fluoro-2-((hexahydro-1H-pyrrolizin-7a-yl)methoxy)-7-(8-(hydroxymethyl)naphthalen-1-yl)pyrido[4,3-d]pyrimidin-4-yl)amino)methyl)thietane1,1-dioxide] | 53 | 4.21 | 6.38 | 8.47 | 6.31 | 8.2 | 18.8 |
| O=C1NC(=O)C2(CCCN(c3nc(OCC45CCCN4CCC5)nc4c(F)c(-c5cccc6cccc(CO)c56)ncc34)C2)N1 (stereo not drawn) [Example 447, 7-(8-fluoro-2-((hexahydro-1H-pyrrolizin-7a-yl)methoxy)-7-(8-(hydroxymethyl)naphthalen-1-yl)pyrido[4,3-d]pyrimidin-4-yl)-1,3,7-triazaspiro[4.5]decane-2,4-dione] | 1.1 | 0.744 | 0.964 | 0.665 | 0.587 | 0.608 | 0.557 |
| N#Cc1cccc2cccc(-c3ncc4c(N5CCCC6(C5)NC(=O)NC6=O)nc(OCC56CCCN5CCC6)nc4c3F)c12 (stereo not drawn) [Example 449, 8-(4-(2,4-dioxo-1,3,7-triazaspiro[4.5]decan-7-yl)-8-fluoro-2-((hexahydro-1H-pyrrolizin-7a-yl)methoxy)pyrido[4,3-d]pyrimidin-7-yl)-1-naphthonitrile] | 8.39 | 3.66 | 4.38 | 5.62 | 4.16 | 3.6 | 4.07 |
| N#Cc1cccc2cccc(-c3ncc4c(N5CCCC6(CC(=O)N6)C5)nc(OCC56CCCN5CCC6)nc4c3F)c12 (stereo not drawn) [Example 451, 8-(8-fluoro-2-((hexahydro-1H-pyrrolizin-7a-yl)methoxy)-4-(2-oxo-1,6-diazaspiro[3.5]nonan-6-yl)pyrido[4,3-d]pyrimidin-7-yl)-1-naphthonitrile] | 2.58 | 2.86 | 4.17 | 3.12 | 2.06 | 1.9 | 2.27 |

The next compounds have a lower IC50 (KRas G12D) than those just listed; values first:

| IC50 (KRas G12D) [µM] | IC50 (KRas G12V) [µM] | IC50 (KRas G12R) [µM] | IC50 (KRas G12A) [µM] | IC50 (KRas G12S) [µM] | IC50 (KRas G12C) [µM] | IC50 (KRas WT) [µM] | SMILES |
| --- | --- | --- | --- | --- | --- | --- | --- |
| 0.124 | 0.13 | 0.125 | 0.128 | 0.113 | 0.096 | 0.106 | C#Cc1c(F)ccc2cc(O)cc(-c3ncc4c(N5CCCC(O)C5)nc(OCCN(C)C)nc4c3F)c12 (stereo not drawn) [Example 387, 1-(2-(2-(dimethylamino)ethoxy)-7-(8-ethynyl-7-fluoro-3-hydroxynaphthalen-1-yl)-8-fluoropyrido[4,3-d]pyrimidin-4-yl)piperidin-3-ol] |
| 0.798 | 0.652 | 0.331 | 0.204 | 0.217 | 0.271 | 0.193 | NS(=O)(=O)CC1CCCN(c2nc(OCC34CCCN3CCC4)nc3c(F)c(-c4cccc5ccccc45)ncc23)C1 (stereo not drawn) [Example 436] |
| 0.238 | 0.239 | 0.099 | 0.109 | 0.106 | 0.13 | 0.095 | Cc1cccc2cccc(-c3ncc4c(N5CCCC(CS(N)(=O)=O)C5)nc(OCC56CCCN5CCC6)nc4c3F)c12 (stereo not drawn) [Example 438, 1-(1-(8-fluoro-2-((hexahydro-1H-pyrrolizin-7a-yl)methoxy)-7-(8-methylnaphthalen-1-yl)pyrido[4,3-d]pyrimidin-4-yl)piperidin-3-yl)methanesulfonamide] |
| 0.51 | 0.844 | 1.72 | 0.758 | 0.69 | 0.55 | 0.714 | CC1(O)CCCN(c2nc(OCC34CCCN3CCC4)nc3c(F)c(-c4cccc5cccc(C6CC6)c45)ncc23)C1 (stereo not drawn) [Example 440, 1-(7-(8-cyclopropylnaphthalen-1-yl)-8-fluoro-2-((hexahydro-1H-pyrrolizin-7a-yl)methoxy)pyrido[4,3-d]pyrimidin-4yl)-3-methylpiperidin-3-ol] |
| 0.087 | 0.054 | 0.061 | 0.059 | 0.049 | 0.053 | 0.053 | Cc1cccc2cccc(-c3ncc4c(N5CCCC6(C5)NC(=O)NC6=O)nc(OCC56CCCN5CCC6)nc4c3F)c12 (stereo not drawn) [Example 448, 7-(8-fluoro-2-((hexahydro-1H-pyrrolizin-7a-yl)methoxy)-7-(8-methylnaphthalen-1-yl)pyrido[4,3-d]pyrimidin-4-yl)-1,3,7-triazaspiro[4.5]decane-2,4-dione] |
| 0.25 | 0.238 | 0.344 | 0.356 | 0.276 | 0.235 | 0.335 | Cc1cccc2cccc(-c3ncc4c(N5CCCC6(CC(=O)N6)C5)nc(OCC56CCCN5CCC6)nc4c3F)c12 (stereo not drawn) [Example 450, 6-(8-fluoro-2-((hexahydro-1H-pyrrolizin-7a-yl)methoxy)-7-(8-methylnaphthalen-1-yl)pyrido[4,3-d]pyrimidin-4-yl)-1,6-diazaspiro[3.5]nonan-2-one] |
| 0.274 | 0.569 | 1.12 | 0.559 | 0.459 | 0.484 | 0.467 | O=C1NCC2(CCCN(c3nc(OCC45CCCN4CCC5)nc4c(F)c(-c5cccc6cccc(CO)c56)ncc34)C2)N1 (stereo not drawn) [Example 453, 7-(8-fluoro-2-((hexahydro-1H-pyrrolizin-7a-yl)methoxy)-7-(8-(hydroxymethyl)naphthalen-1-yl)pyrido[4,3-d]pyrimidin-4-yl)-1,3,7-triazaspiro[4.5]decan-2-one] |
